What was measured:
[1] = tested on: ICR female mice; conditions: mouse, oral, single dose of 1,000 mg/kg
Description: 12 seven-week-old, specific pathogen-free ICR female mice, six female mice each weighing about 25 to 29 g and six male mice each weighing about 34 to 38 g, were kept under an environment of 22±1°C, 55±5 % relative humidity and 12L/12D photoperiod. Fodder(Cheiljedang Co., mouse and rat fodder) and water were sterilized and fed to the mice.
Neohesperidin dihydrochalcone purchased from Aldrich-Sigma Chemical Co. (St. Louis, MO, U.S.A) was dissolved in 0.5 % Tween 80 to a concentration of 100 mg/ml, and the solution was orally administered to the mice in an amount of 0.2 ml per 20 g of mouse body weight. […] Further, on the 10th day, the mice were sacrificed and the internal organs were visually examined.

[2] = tested on: ACAT; test: ACAT assay on liver microsomes of the diet-fed rats; assay type: biochemical; conditions: ex vivo: liver microsomes of rats fed 1 % cholesterol plus 0.05 % neohesperidin dihydrochalcone for six weeks, versus Control group
Description: To determine the effect of feeding neohesperidin dihydrochalcone to rats on the activity of ACAT, microsomes were separated from liver tissues to be used as an enzyme source.
1 g each of the livers taken from each group of rats of Example 2 was homogenized in 5 ml of homogenization medium(0.1 M KH2PO4, pH 7.4, 0.1 mM EDTA and 10 mM β-mercaptoethanol). The homogenate was centrifuged at 3,000xg for 15 min. at 4°C and the supernatant thus obtained was centrifuged at 15,000xg for 15 min. at 4°C to obtain a supernatant. The supernatant was put into an ultracentrifuge tube(Beckman) and centrifuged at 100,000xg for 1 hour at 4°C to obtain microsomal pellets, which were then suspended in 3 ml of the homogenization medium and centrifuged at 100,000xg for 1 hour at 4°C. The pellets thus obtained were suspended in 1 ml of the homogenization medium. The protein concentration of the resulting suspension was determined by Lowry's method and then adjusted to 4 to 8 mg/ml. […]
200 µl of the resulting supernatant was put in a scintillation bottle and 4 ml of scintillation fluid(Lumac) was added thereto. The mixture was assayed for radioactivity with 1450 Microbeta liquid scintillation counter(Wallacoy, Finland). ACAT activity was calculated as picomoles of cholesteryl oleate synthesized per min. per mg protein(pmoles/min/mg protein).

[3] = tested on: Human; test: Effect of administration to a human on plasma lipid metabolism; assay type: in vivo; conditions: two men in their mid-fifties, daily oral dose of 10mg/kg, capsule, 60 days, before versus after
Description: Two men in their mid-fifties were administered with a daily oral dose of 10mg/kg of neohesperidin dihydrochalcone in the form of a capsule for 60 days. The plasma cholesterol and neutral lipid(triglyceride) contents were determined before and after the administration.

[4] = tested on: New Zealand White rabbits; test: Chemical analysis of blood of cholesterol-fed rabbits; assay type: in vivo
Description: 30 three-month-old New Zealand White rabbits(Yeonam Horticulture and Animal Husbandry College, Korea), each weighing about 2.5 to 2.6 kg, were raised under a condition of temperature 20±2°C, relative humidity 55±5 %, and photoperiod 12L/12D. The rabbits were divided into 3 groups and 3 groups of rabbits were fed with 3 different diets, i.e., RC4 diet(Oriental Yeast Co., Japan) containing 1 % cholesterol(Control group); 1 % cholesterol plus 1 mg/kg Lovastatin®(Merck, U.S.A.)(Lovastatin group); and 1 % cholesterol plus 0.05 % neohesperidin dihydrochalcone(Neohesperidin dihydrochalcone group), respectively. RC4 diet comprises 7.6 % moisture, 22.8 % crude protein, 2.8 % crude fat, 8.8 % crude ash, 14.4 % crude cellulose and 43.6 % soluble nitrogen-free substances. Neohesperidin dihydrochalcone was purchased from Sigma Chemical Co.(St. Louis, MO).
The rabbits were fed for 6 weeks while being allowed free access to the diets and water.
After six weeks, the rabbits were anesthetized with an intramuscular injection of ketamine (50 mg/kg) in the femoral region and sacrificed.

[5] = rabbit serum, 1 % cholesterol diet for 6 weeks plus 1 mg/kg Lovastatin or 0.05 % neohesperidin dihydrochalcone
[6] = rabbits, 1 % cholesterol plus 0.05 % neohesperidin dihydrochalcone, 6 weeks

SMILES: COc1ccc(CCC(=O)c2c(O)cc(O[C@@H]3O[C@H](CO)[C@@H](O)[C@H](O)[C@H]3O[C@@H]3O[C@@H](C)[C@H](O)[C@@H](O)[C@H]3O)cc2O)cc1O [Neohesperidin dihydrochalcone]
- survival at day 10 [1]: All the mice were alive
- pathological abnormality at autopsy ([1]; autopsy on the 10th day): did not develop any pathological abnormality
- %Inhibition on ACAT activity [2]: 20%
- plasma cholesterol content reduced [3]: 20%
- plasma neutral lipid(triglyceride) content reduced [3]: 15%
- GOT [4, 5]: 53 (±23) IU/1
- GPT [4, 5]: 42 (±20) IU/l
- Total-C [4, 5]: 1293 (±89) mg/dl
- γ-GTP [4, 5]: 7.8 (±5) IU/l
- reducing serum GOT and GPT levels, compared with Lovastatin® ([4]; rabbits, 1 % cholesterol diet, 6 weeks): more effective
- serum GOT level lowered, as compared to the Control group [4, 6]: 31%
- serum GPT level lowered, as compared to the Control group [4, 6]: 35%
